Data from patent publication US20130029981A1, “COMPOUNDS, COMPOSITIONS, AND METHODS FOR CONTROLLING BIOFILMS” (Katholieke Universiteit Leuven, priority 2009, published 2013).
Where two headings read alike, the source gives them in different places.

Key:
S. Typhimurium ATCC14028 = test: Static peg assay for prevention of biofilm formation (Calgary device, crystal violet); type: cell-based, Salmonella Typhimurium
Outline: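 Calgary 96-peg device, ca. 10^6 cells of ATCC14028 per well in TSB 1/20 for 24 h at 25° C (or 48 h at 16° C, medium and compound renewed at 24 h), or in CFA broth for 24 h at 37° C, static, with two-fold compound dilutions. Crystal violet stain, acetic acid extraction, OD570. IC50 from 2–3 independent experiments.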

[1] = system: Pseudomonas aeruginosa PA14; test: as above; type: cell-based
Outline: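 P. aeruginosa PA14 overnight TSB culture diluted 1:100 into broth with two-fold compound dilutions, biofilms grown 24 h static on polystyrene pegs of a Calgary device at 25 °C (TSB 1/20), 30 °C or 37 °C (CFA and/or LBNS). Biofilm quantified by crystal violet, extracted with 30% acetic acid, A570.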

[2] = system: Salmonella Typhimurium ATCC 14028; test: Antibacterial activity: growth inhibition, OD600 after 24 h (GIC50); type: cell-based; conditions: Salmonella enterica; 25° C.
Protocol: Evaluation of antibacterial-inhibitory activity of some substituted 2-amino-1H-imidazoles of the invention was carried out by diluting an overnight culture of Salmonella Typhimurium ATCC 14028 into a liquid medium. 200 μl of the diluted overnight culture was added to each well of a microtiter plate together with different concentrations of the test compound (1/2 dilution series of the compound). After an incubation of 24 hours the optical density at 600 nm of each well was determined with a microtiter plate reader.
Starting from a 40 mM stock solution of each compound in DMSO, two-fold serial dilutions in 100 μl liquid broth per well were prepared in dublicate in sterile transparant microtiter plates. The broth used was TSB 1/20 for measurements at 25° C. and CFA (in case of Salmonella Typhimurium) and LBNS (in case of Pseudomonas aeruginosa) for measurements at 37° C. Subsequently an overnight culture of the bacteria (S. Typhimurium ATCC14028 or P. aeruginosa PA14) was diluted 1/200 into the corresponding liquid broth and 100 μl was added to each well of the microtiterplate resulting in a total amout of 200 μl medium per well. After an incubation of 24 hours the optical density at 600 nm of each well was determined with a microtiter plate reader (VERSAmax, Molecular Devices).
Evaluation of antibacterial-inhibitory activity of some substituted imidazo[1,2-a]pyrimidinium bromide salts of the invention was carried out by diluting an overnight culture of Salmonella Typhimurium ATCC14028 or Pseudomonas aeruginosa PA141/200 into liquid medium. 200 μl of the diluted overnight culture was added to each well of a microtiterplate together with different concentrations of the test compound (1/2 dilution series of the compound). After an incubation of 24 hours the optical density at 600 nm of each well was determined with a microtiter plate reader.

[3] = 25° C., 24 hours, Table 15, read-out: (1) IC50 (biofilm inhibition)
[4] = 25° C., Table 16, read-out: S. Typhimurium IC50 (biofilm formation)
[5] = 25° C., 24 hours, Table 15, read-out: (2) IC50 (biofilm inhibition)
[6] = 25° C., Table 16, read-out: P. aeruginosa IC50 (biofilm formation)
[7] = S. Typhimurium ATCC 14028, 25° C., read-out: S. Typhimurium IC50 (biofilm formation)
[8] = P. aeruginosa PA14, 25° C., read-out: P. aeruginosa IC50 (biofilm formation)
[9] = Salmonella enterica, 25° C., Table 11, read-out: IC50 (biofilm formation)
[10] = Salmonella enterica, 25° C., Table 14, read-out: IC50 biofilm inhibition

`CCCCCCCC[n+]1c(-c2cccc(Br)c2)cn2cccnc21.[O-][Cl+3]([O-])([O-])[O-]` [2-(3-Bromophenyl)-1-octylimidazo[1,2-a]pyrimidin-1-ium perchlorate] was tested. Which IC50 (S. Typhimurium ATCC14028; Salmonella enterica, 24 h, read-out: (1) IC50 (biofilm inhibition)) did it give?
The IC50 was 7.33 µM.

And the IC50 ([1]; Pseudomonas aeruginosa, PA14, 24 h, read-out: (2) IC50 (biofilm inhibition))?
The IC50 was 7 µM.

`CCCCCCCCN1c2nccc[n+]2CC1(O)c1ccccc1` (racemic) [Compound 8] was tested. Which IC50 (S. Typhimurium ATCC14028; [3]) did it give?
The IC50 was 9.77 µM.

What about the IC50 (S. Typhimurium ATCC14028; [4]) of the same compound?
Its IC50 is 9.8 µM.

And the IC50 [1, 5]?
Its IC50 is 11.2 µM.

What about the IC50 [1, 6] of the same compound?
The IC50 was 18.9 µM.

What does the source list for `Nc1ncc(-c2ccc(F)cc2)[nH]1` [Compound 96]?
IC50 (S. Typhimurium ATCC14028; [7]): 84.4 µM; IC50 [1, 8]: 15 µM

How did the IC50 [2] turn out when `CC1[n+]2cccnc2N(c2ccccc2)C1(O)c1ccc(Br)cc1` (stereo not drawn) [R1=Ph, R3=4-Br—Ph, R4=Me, 1-phenyl-2-hydroxy-2-(4-bromophenyl)-3-methyl-2,3-dihydro-1H-imidazo[1,2-a]pyrimidin-4-ium bromide] was run?
The IC50 was 50 to 100 µM.

What about the IC50 (S. Typhimurium ATCC14028; [9]) of the same compound?
The IC50 was 57.5 µM.

And the IC50 (S. Typhimurium ATCC14028; [10])?
Its IC50 is 57.5 µM.

How did the IC50 [2] turn out when `CSc1ccc(C2(O)C[n+]3cccnc3N2C2CCCCC2)cc1` (stereo not drawn) [R1=Cyclohexyl, R3=4-MeS—Ph, R4=H, 1-cyclohexyl-2-hydroxy-2-(4-methylthiophenyl)-2,3-dihydro-1H-imidazo[1,2-a]pyrimidin-4-ium bromide] was run?
The IC50 was 100 to 200 µM.

And the IC50 (S. Typhimurium ATCC14028; [9])?
Its IC50 is 118 µM.

What about the IC50 (S. Typhimurium ATCC14028; [10]) of the same compound?
The IC50 was 118 µM.

Which IC50 (S. Typhimurium ATCC14028; [7]) does the source give for `CCCCCCNc1ncc(-c2ccc(F)cc2)[nH]1` [Compound 99] here?
The IC50 was greater than 400 µM.

What about the IC50 [1, 8] of the same compound?
Its IC50 is roughly 12.5 µM.

What does the source list for `CCCCCCCCN1c2nccc[n+]2CC1(O)c1ccc(SC)cc1` (stereo not drawn) [Compound 51]?
IC50 (S. Typhimurium ATCC14028; [3]): ~13.2 µM; IC50 (S. Typhimurium ATCC14028; 25° C., Table 17, read-out: S. Typhimurium IC50 (biofilm formation)): ~13.2 µM; IC50 [1, 5]: 29 µM; IC50 ([1]; 25° C., Table 17, read-out: P. aeruginosa IC50 (biofilm formation)): 36.5 µM

`CCCCCNc1ncc(-c2ccc(Br)cc2)[nH]1` [Compound 104] was tested. Which IC50 (S. Typhimurium ATCC14028; [7]) did it give?
The IC50 was 3.1 µM.

What about the IC50 [1, 8] of the same compound?
Its IC50 is 10.2 µM.

For `COc1ccc(C2(O)C[n+]3cccnc3N2C2CCCCC2)cc1` (stereo not drawn) [R1=Cyclohexyl, R3=4-MeO—Ph, R4=H, 1-cyclohexyl-2-hydroxy-2-(4-methoxyphenyl)-2,3-dihydro-1H-imidazo[1,2-a]pyrimidin-4-ium bromide], which IC50 [2] is on record?
Its IC50 is 50 to 100 µM.

And the IC50 (S. Typhimurium ATCC14028; [9])?
Its IC50 is 112 µM.

And the IC50 (S. Typhimurium ATCC14028; [10])?
The IC50 was 112 µM.

`CC(C)CN1c2nccc[n+]2CC1(O)c1ccc([N+](=O)[O-])cc1` (stereo not drawn) [Compound 32] was tested. Which IC50 (S. Typhimurium ATCC14028; [4]) did it give?
Its IC50 is 322 µM.

And the IC50 [1, 6]?
Its IC50 is 192 µM.

Which IC50 (S. Typhimurium ATCC14028; 25° C., Table 18, read-out: S. Typhimurium IC50 (biofilm formation)) does the source give for `OC1(c2ccccc2)C[n+]2cccnc2N1C1CCC1` (stereo not drawn) [Compound 57] here?
The IC50 was 493 µM.

What about the IC50 ([1]; 25° C., Table 18, read-out: P. aeruginosa IC50 (biofilm formation)) of the same compound?
Its IC50 is greater than 400 µM.

What does the source list for `CN1c2nccc[n+]2CC1(O)c1ccccc1` (racemic) [Compound 1]?
IC50 (S. Typhimurium ATCC14028; [4]): > 800 µM; IC50 [1, 6]: 212 µM

For `CCCCCCCC[n+]1c(-c2ccc(-c3ccc([N+](=O)[O-])cc3)cc2)cn2cccnc21.[O-][Cl+3]([O-])([O-])[O-]` [1-octyl-2-(4′-nitro[1,1-biphenylyl]-4-yl)-imidazo[1,2-a]pyrimidin-1-ium perchlorate], which IC50 (S. Typhimurium ATCC14028; [3]) is on record?
Its IC50 is 1.49 µM.

What about the IC50 [1, 5] of the same compound?
Its IC50 is 1.04 µM.
